The values that follow come from ChEMBL document CHEMBL4028801, “A multifactorial approach to hepatobiliary transporter assessment enables improved therapeutic compound development” (Toxicol Sci, 2013).

The target in one data set is Bile salt export pump (Homo sapiens, UniProt O95342). The experiment in a line: Inhibition of human BSEP overexpressed in Sf9 cell membrane vesicles assessed as uptake of [3H]-taurocholate in presence of ATP measured after 15 to 20 mins by membrane vesicle transport assay. It counts as ADME, cell-based.
Chain of Bile salt export pump (O95342 whole entry): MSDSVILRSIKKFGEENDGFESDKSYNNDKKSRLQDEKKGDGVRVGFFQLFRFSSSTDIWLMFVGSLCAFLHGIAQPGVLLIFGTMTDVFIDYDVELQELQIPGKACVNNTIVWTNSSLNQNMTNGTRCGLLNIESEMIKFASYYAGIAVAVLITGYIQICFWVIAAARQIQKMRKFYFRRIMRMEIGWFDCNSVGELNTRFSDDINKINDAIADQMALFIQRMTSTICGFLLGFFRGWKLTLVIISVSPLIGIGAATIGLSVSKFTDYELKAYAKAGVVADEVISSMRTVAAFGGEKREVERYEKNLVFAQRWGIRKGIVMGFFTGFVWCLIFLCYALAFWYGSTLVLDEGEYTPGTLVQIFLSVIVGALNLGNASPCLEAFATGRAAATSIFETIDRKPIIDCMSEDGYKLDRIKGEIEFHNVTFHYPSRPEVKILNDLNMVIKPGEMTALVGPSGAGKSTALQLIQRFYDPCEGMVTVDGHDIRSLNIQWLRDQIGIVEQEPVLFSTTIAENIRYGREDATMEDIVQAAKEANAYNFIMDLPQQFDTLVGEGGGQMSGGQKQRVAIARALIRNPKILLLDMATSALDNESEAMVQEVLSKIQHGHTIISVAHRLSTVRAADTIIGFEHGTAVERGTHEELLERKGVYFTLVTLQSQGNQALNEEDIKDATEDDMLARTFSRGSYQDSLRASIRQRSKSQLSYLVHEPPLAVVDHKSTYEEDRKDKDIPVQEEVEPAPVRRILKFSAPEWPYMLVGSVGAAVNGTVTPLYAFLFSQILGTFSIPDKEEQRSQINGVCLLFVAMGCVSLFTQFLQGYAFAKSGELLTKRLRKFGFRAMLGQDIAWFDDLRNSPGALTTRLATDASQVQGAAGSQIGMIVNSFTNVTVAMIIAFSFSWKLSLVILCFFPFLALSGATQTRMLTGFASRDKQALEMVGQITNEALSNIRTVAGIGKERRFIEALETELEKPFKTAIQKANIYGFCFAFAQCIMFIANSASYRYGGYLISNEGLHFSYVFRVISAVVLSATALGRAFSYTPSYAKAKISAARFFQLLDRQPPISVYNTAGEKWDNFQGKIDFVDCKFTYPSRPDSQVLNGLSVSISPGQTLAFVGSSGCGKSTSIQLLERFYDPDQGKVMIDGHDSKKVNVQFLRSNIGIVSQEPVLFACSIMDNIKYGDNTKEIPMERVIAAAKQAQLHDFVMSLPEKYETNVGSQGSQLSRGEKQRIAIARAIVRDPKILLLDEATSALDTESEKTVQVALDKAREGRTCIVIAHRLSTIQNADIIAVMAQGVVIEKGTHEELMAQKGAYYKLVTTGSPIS
The target in data set [1] is ATP-binding cassette sub-family C member 2 (Homo sapiens, UniProt Q92887). The data set can be described thus: Inhibition of human MRP2 overexpressed in Sf9 cell membrane vesicles assessed as uptake of [3H]-estradiol-17beta-D-glucuronide in presence of ATP and GSH measured after 20 mins by membrane vesicle transport assay.
Chain of ATP-binding cassette sub-family C member 2 (Q92887 whole entry): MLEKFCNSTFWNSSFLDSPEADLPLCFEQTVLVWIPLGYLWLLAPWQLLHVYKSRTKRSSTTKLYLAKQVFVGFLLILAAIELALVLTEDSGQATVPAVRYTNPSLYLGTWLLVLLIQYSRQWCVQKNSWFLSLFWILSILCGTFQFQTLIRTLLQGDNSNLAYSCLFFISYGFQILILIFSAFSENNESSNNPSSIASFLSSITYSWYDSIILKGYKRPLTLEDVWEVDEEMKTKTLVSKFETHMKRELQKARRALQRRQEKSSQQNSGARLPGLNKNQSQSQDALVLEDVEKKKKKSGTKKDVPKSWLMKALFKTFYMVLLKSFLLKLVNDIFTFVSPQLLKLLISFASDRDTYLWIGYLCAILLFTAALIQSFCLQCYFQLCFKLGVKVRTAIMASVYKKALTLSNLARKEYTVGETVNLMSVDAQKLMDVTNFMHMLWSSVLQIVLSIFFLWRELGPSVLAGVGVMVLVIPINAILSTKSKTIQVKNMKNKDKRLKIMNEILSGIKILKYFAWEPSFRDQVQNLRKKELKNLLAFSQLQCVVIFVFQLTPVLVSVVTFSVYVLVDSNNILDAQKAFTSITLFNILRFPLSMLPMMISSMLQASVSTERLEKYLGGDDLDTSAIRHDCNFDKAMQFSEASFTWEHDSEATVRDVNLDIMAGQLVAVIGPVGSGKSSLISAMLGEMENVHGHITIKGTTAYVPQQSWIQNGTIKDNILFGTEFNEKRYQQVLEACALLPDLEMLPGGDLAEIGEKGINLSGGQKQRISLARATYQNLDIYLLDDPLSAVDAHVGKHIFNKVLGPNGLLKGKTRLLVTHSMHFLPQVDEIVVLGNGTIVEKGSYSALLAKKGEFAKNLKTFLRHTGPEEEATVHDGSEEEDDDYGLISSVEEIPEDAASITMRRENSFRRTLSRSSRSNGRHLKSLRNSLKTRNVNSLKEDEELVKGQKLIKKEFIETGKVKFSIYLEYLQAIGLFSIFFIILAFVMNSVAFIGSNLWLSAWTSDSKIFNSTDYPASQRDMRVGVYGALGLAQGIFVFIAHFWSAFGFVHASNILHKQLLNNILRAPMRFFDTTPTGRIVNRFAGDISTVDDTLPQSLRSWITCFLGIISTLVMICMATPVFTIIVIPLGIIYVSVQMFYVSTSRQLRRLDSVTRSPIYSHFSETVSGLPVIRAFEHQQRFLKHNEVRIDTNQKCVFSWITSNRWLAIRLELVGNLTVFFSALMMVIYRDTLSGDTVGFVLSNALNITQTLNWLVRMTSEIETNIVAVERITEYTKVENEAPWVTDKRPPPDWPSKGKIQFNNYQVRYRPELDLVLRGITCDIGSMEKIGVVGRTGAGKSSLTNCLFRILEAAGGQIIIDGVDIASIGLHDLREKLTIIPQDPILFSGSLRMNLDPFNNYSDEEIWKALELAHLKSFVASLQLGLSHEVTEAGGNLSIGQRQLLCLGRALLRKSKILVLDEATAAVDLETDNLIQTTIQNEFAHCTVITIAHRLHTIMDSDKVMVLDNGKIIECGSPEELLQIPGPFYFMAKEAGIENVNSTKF
Data set [2] has as its target ATP-binding cassette sub-family C member 3 (Homo sapiens, UniProt O15438). The data set can be described thus: Inhibition of human MRP3 overexpressed in Sf9 insect cell membrane vesicles assessed as uptake of [3H]-estradiol-17beta-D-glucuronide in presence of ATP and GSH measured after 10 mins by membrane vesicle transport assay. It counts as ADME, cell-based.
For data set [3], the target named is T1, ATP-binding cassette sub-family C member 4 (Homo sapiens, UniProt O15439).
T1 sequence (O15439 whole entry): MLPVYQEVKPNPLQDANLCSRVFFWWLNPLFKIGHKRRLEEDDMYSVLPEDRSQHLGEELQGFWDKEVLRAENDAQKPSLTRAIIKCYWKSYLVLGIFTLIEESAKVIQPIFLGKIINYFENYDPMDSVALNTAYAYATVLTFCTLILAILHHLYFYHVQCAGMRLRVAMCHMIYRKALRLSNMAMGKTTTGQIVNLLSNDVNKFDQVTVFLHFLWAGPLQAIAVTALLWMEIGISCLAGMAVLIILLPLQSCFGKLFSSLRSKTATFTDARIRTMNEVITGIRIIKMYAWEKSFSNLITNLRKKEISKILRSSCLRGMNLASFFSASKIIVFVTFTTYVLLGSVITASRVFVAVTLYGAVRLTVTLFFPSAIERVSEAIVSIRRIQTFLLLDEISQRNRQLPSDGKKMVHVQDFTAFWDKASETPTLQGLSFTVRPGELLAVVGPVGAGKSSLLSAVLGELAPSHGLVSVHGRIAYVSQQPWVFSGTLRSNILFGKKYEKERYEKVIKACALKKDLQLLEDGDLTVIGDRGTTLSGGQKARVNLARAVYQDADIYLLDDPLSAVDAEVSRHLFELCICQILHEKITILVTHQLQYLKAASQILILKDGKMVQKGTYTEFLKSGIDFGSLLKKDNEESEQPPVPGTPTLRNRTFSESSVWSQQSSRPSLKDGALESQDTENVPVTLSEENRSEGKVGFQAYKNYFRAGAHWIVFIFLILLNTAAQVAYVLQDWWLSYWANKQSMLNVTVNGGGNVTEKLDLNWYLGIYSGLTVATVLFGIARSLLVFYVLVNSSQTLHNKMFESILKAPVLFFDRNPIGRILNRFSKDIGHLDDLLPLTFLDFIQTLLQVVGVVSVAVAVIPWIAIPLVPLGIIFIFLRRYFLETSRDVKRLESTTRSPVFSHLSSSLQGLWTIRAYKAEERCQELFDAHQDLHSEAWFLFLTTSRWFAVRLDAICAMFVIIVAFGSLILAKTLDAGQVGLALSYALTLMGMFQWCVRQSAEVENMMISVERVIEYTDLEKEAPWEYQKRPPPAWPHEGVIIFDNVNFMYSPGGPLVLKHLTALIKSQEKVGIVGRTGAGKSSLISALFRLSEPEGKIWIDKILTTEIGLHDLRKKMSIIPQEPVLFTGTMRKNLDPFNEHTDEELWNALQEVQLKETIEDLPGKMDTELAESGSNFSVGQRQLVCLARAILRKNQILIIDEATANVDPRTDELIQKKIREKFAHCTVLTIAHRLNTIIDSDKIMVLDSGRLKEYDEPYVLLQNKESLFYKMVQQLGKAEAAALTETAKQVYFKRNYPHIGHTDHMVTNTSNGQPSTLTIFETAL
The data set can be described thus: Inhibition of human MRP4 overexpressed in Sf9 cell membrane vesicles assessed as uptake of [3H]-estradiol-17beta-D-glucuronide in presence of ATP and GSH measured after 20 mins by membrane vesicle transport assay. It counts as ADME, cell-based.

Data set [4] is described as follows: AUC in human at 20 to 40 mg/kg, po QD after 24 hrs. The data set is classed as ADME, organism-based. As to conditions: in vivo.
Data set [5] in a line: Drug concentration at steady state in human at 20 to 40 mg/kg, po QD after 24 hrs. The data set is classed as ADME, organism-based. As to conditions: in vivo, read-out: Css.
The nature of data set [6]: Ratio of drug concentration at steady state in human at 20 to 40 mg/kg, po QD after 24 hrs to IC50 for human BSEP overexpressed in Sf9 insect cells. The data set is classed as ADME, organism-based. As to conditions: in vivo.
A short description of data set [7]: Ratio of drug concentration at steady state in human at 20 to 40 mg/kg, po QD after 24 hrs to IC50 for human MRP4 overexpressed in Sf9 insect cells. It counts as ADME, organism-based. As to conditions: in vivo.
The nature of data set [8]: Drug concentration at steady state in human at 43 to 130 mg, po QD after 24 hrs. It counts as ADME, organism-based. As to conditions: in vivo, read-out: Css.
The nature of another data set: clinical. Particulars: human, in vivo, po.
A short description of data set [9]: AUC in patient with osteomyelitis at 1500 mg, po QD after 24 hrs. It counts as ADME, organism-based. Details: time < 24 hr, dose 1500 mg, route oral. Particulars: human, in vivo.
Data set [10] in a line: Drug concentration at steady state in patient with osteomyelitis at 1500 mg, po QD after 24 hrs. Particulars: human, in vivo, read-out: Css. It counts as ADME, organism-based.
Data set [11] in a line: Ratio of drug concentration at steady state in patient with osteomyelitis at 1500 mg, po QD after 24 hrs to IC50 for human BSEP overexpressed in Sf9 insect cells. The data set is classed as ADME, organism-based. Particulars: in vivo.
A short description of data set [12]: AUC in human at 600 mg, po QD after 24 hrs. Particulars: in vivo. Set-up: time < 24 hr, dose 600 mg, route oral. The data set is classed as ADME, organism-based.
The nature of data set [13]: Drug concentration at steady state in human at 600 mg, po QD after 24 hrs. It counts as ADME, organism-based. As to conditions: in vivo, read-out: Css.
Data set [14] is described as follows: Ratio of drug concentration at steady state in human at 600 mg, po QD after 24 hrs to IC50 for human BSEP overexpressed in Sf9 insect cells. It counts as ADME, organism-based. Particulars: in vivo.
The nature of data set [15]: AUC in human at 75 to 600 mg, iv QD after 24 hrs. It counts as ADME, organism-based. As to conditions: in vivo.
Data set [16] is described as follows: Drug concentration at steady state in human at 75 to 600 mg, iv QD after 24 hrs. The data set is classed as ADME, organism-based. Particulars: in vivo, read-out: Css.

Chain of ATP-binding cassette sub-family C member 3 (O15438 whole entry): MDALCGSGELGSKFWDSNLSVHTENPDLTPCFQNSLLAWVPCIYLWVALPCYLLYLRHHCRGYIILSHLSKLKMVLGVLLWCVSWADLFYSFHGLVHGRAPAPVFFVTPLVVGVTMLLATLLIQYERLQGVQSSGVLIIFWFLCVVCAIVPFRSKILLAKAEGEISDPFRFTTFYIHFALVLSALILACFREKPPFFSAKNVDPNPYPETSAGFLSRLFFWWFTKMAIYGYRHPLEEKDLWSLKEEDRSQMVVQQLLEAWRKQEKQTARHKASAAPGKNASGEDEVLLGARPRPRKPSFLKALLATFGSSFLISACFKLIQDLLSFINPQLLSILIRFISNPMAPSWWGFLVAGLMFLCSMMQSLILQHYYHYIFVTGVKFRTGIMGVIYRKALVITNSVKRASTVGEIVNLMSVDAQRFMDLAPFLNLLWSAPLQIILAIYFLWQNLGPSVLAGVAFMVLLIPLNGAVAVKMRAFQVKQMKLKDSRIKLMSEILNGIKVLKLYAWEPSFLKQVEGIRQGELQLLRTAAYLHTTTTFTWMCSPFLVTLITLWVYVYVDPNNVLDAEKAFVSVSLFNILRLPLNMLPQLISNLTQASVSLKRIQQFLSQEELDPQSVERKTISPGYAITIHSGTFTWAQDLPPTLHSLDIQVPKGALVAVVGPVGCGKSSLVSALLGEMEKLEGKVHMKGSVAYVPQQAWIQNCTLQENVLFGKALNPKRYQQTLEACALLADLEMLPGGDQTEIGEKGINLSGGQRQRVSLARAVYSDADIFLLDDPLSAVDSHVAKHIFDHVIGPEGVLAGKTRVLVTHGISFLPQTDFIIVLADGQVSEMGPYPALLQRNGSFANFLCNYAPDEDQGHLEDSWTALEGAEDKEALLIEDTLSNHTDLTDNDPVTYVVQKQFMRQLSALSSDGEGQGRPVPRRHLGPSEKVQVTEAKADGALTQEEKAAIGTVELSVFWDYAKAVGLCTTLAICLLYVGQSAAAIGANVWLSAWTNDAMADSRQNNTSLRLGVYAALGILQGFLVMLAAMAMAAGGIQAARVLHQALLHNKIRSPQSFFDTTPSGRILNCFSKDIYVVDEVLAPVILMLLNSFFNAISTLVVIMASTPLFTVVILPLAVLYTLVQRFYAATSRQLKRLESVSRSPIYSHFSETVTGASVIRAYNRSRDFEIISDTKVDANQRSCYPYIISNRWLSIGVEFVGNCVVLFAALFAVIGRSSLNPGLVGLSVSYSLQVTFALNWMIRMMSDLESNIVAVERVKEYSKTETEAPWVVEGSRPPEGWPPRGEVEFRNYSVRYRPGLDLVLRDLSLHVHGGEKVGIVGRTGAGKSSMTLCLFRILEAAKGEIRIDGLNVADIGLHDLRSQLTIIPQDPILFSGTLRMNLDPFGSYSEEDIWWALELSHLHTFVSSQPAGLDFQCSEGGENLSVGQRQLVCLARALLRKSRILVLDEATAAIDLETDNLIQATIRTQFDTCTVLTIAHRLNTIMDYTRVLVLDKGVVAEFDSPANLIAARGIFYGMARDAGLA

Consider `O=C(O)c1ccc(-n2nc(-c3ccccc3O)nc2-c2ccccc2O)cc1` [DEFERASIROX], for which the IC50 at Bile salt export pump is 58.4 µM; in [1], above 133 µM; in data set [2] it was above 133 µM; in data set [3], 36.5 µM. For the same compound, in data set [4], the AUC at 24 h is 3310 µM·h. Besides, the concentration at 24 h in data set [5] turned out to be 138 µM. Besides, the results for the Ratio in [6] and in data set [7] were 2.363 and 3.781, respectively.
In the case of `CC(C)OC(=O)C(C)(C)Oc1ccc(C(=O)c2ccc(Cl)cc2)cc1` [FENOFIBRATE], the IC50 in data set [1], in data set [2] and in [3] was above 133 µM in each case. Further, in [8], the concentration at 24 h was found to be 14.9 µM. The exposure (AUC) at 24 h in the data set “clinical” came out at 357 µM·h.
On to `CC(=O)O[C@H]1C[C@@]2(C)[C@@H](C[C@@H](O)[C@H]3[C@@]4(C)CC[C@@H](O)[C@@H](C)[C@@H]4CC[C@@]32C)/C1=C(\CCC=C(C)C)C(=O)O` [FUSIDIC ACID], for which the IC50 in data set [1], in data set [2] and in [3] was above 133 µM throughout. The compound also came in with an AUC at 24 h in data set [9] of 6390 µM·h. Besides, the concentration at 24 h in [10] was determined as 266 µM. Also, the Ratio in data set [11] was 26.38.
As to `CC#C[C@]1(O)CC[C@H]2[C@@H]3CCC4=CC(=O)CCC4=C3[C@@H](c3ccc(N(C)C)cc3)C[C@@]21C` [MIFEPRISTONE], the IC50 on Bile salt export pump is 2.02 µM; in data set [1], above 133 µM; in data set [2], above 133 µM; in data set [3], above 133 µM. This compound yielded an exposure (AUC) at 24 h in data set [12] of 181 µM·h. For the same compound, in [13], the concentration at 24 h is 7.56 µM. Also, the Ratio in data set [14] is given as 3.743.
Regarding `CN(C)C(=O)CCSC(SCCC(=O)O)c1cccc(/C=C/c2ccc3ccc(Cl)cc3n2)c1` (stereo not given) [MK-571], the IC50 in data set [1] was above 133 µM; in data set [2], 9.3 µM. For the same compound, the AUC at 24 h in data set [15] worked out at 447 µM·h. The concentration at 24 h in data set [16] turned out to be 18.6 µM.
